US7098227B2, “Disubstituted thiazolyl carboxanilides and their use as microbicides” (Bayer Cropscience AG, priority 2002, dated 2006)

Tests used:
[1] = logP determination by HPLC on reverse-phase column (C 18), EEC Directive 79/831 Annex V.A8; assay type: physicochemical; conditions: 43° C.; for chromatographic logP: reverse-phase HPLC column (C 18), pH 2.3, pH 2.3, 0.1% aqueous phosphoric acid/acetonitrile gradient
Protocol: The logP values given in the tables and Preparation Examples above are determined in accordance with EEC Directive 79/831 Annex V.A8 by HPLC (High Performance Liquid Chromatography) on a reverse-phase column (C 18). Temperature: 43° C. The determination is carried out in the acidic range at pH 2.3 using the mobile phases 0.1% aqueous phosphoric acid and acetonitrile; linear gradient from 10% acetonitrile to 90% acetonitrile. Calibration is carried out using unbranched alkan-2-ones (of 3 to 16 carbon atoms), with known logP values (determination of the logP values by the retention times using linear interpolation between two successive […]).

[2] = system: Sphaerotheca fuliginea; assay: Sphaerotheca Test (Cucumber)/Protective; assay type: in vivo; conditions: Podosphaera fuliginea, 168 h, application rate 10 g/ha, protective spray, evaluation 7 days after inoculation, 100% = no infection, read-out: % Efficacy
Protocol: Sphaerotheca Test (Cucumber)/Protective [table] To produce a suitable preparation of active compound, 1 part by weight of active compound is mixed with the stated amounts of solvent and emulsifier, and the concentrate is diluted with water to the desired concentration. To test for protective effectivity, the young plants are sprayed with the preparation of active compound at the stated application rate. After the spray coating has dried on, the plants are inoculated with an aqueous spore suspension of Sphaerotheca fuliginea. The plants are then placed in a greenhouse at about 23° C. and a relative atmospheric humidity of about 70%. Evaluation is carried out 7 days after the inoculation. 0% means an efficacy which corresponds to that of the control, whereas an efficacy of 100% means that no infection is observed.

[3] = system: Botrytis cinerea; assay: Botrytis Test (Bean)/Protective; assay type: in vivo; conditions: 48 h, application rate 100 g/ha, protective spray, evaluation 2 days after inoculation, 100% = no infection, read-out: % Efficacy
Protocol: Botrytis Test (Bean)/Protective [table] To produce a suitable preparation of active compound, 1 part by weight of active compound is mixed with the stated amounts of solvent and emulsifier, and the concentrate is diluted with water to the desired concentration. To test for protective activity, young plants are sprayed with the preparation of active compound at the stated application rate. After the spray coating has dried on, 2 small pieces of agar colonised by Botrytis cinerea are placed onto each leaf. The inoculated plants are then placed in a dark chamber at about 20° C. and 100% relative atmospheric humidity. 2 days after the inoculation, the size of the infected areas on the leaves is evaluated. 0% means an efficacy which corresponds to that of the control, whereas an efficacy of 100% means that no infection is observed.

[4] = system: Venturia inaequalis; assay: Venturia Test (Apple)/Protective; assay type: in vivo; conditions: 240 h, application rate 10 g/ha, protective spray, evaluation 10 days after inoculation, 100% = no infection, read-out: % Efficacy
Protocol: Venturia Test (Apple)/Protective [table] To produce a suitable preparation of active compound, 1 part by weight of active compound is mixed with the stated amounts of solvent and the emulsifier, and the concentrate is diluted with water to the desired concentration. To test for protective activity, young plants are sprayed with the preparation of active compound at the stated application rate. After the spray coating has dried on, the plants are inoculated with an aqueous conidia suspension of the apple scab pathogen Venturia inaequalis and then remain in an incubation cabin at about 20° C. and 100% relative atmospheric humidity for 1 day. The plants are then placed in a greenhouse at about 21° C. and a relative atmospheric humidity of about 90%. Evaluation is carried out 10 days after the inoculation. 0% means an efficacy which corresponds to that of the control, whereas an efficacy of 100% means that no infection is observed.

[5] = system: Rhizoctonia solani; assay: In vitro Test for the ED50 Determination in Microorganisms; assay type: cell-based; conditions: 50% inhibition of fungal growth, tested at 0.1, 1, 10 and 100 ppm, 22° C., 3–5 days, photometric 620 nm
Protocol: (§1) In vitro Test for the ED50 Determination in Microorganisms A methanolic solution of the active compound to be tested, mixed with the emulsifier PS16, is pipetted into the wells of microtitre plates. After the solvent has evaporated, 200 μl of potato/dextrose medium are added to each well. Beforehand, a suitable concentration of spores or mycelium of the fungus to be tested was added to the medium. The resulting concentrations of the active compound are 0.1, 1, 10 and 100 ppm. The resulting concentration of the emulsifier is 300 ppm. The plates are then incubated on a shaker at a temperature of 22° C. for 3–5 days, until sufficient growth can be observed in the untreated control. Evaluation is carried out photometrically at a wavelength of 620 nm. The dose of active compound which causes a 50% inhibition of fungal growths compared to the untreated control (ED50), is calculated from the data measured at different concentrations.

[6] = system: Septoria tritici; assay: as above; assay type: cell-based; conditions: 50% inhibition of fungal growth, tested at 0.1, 1, 10 and 100 ppm, 22° C., 3–5 days, photometric 620 nm
Protocol: as §1

With `Cc1nc(C(F)(F)F)c(C(=O)Nc2ccccc2-c2ccc(F)c(Cl)c2)s1` [Example 1, N-(3′-chloro-4′-fluoro-1,1′-biphenyl-2-yl)-2-methyl-4-(trifluoromethyl)-1,3-thiazol-5-carboxamide] the logP ([1]; pH 2.3, 0.1% aqueous phosphoric acid/acetonitrile gradient, listed as 2) was 3.60, the chromatographic logP [1] was 3.58 and the pest or weed control at 10 g/ha [2] was 83%. The pest or weed control at 100 g/ha [3] was 82% and the pest or weed control at 10 g/ha [4] was 100%.
In the case of `Cc1nc(C(F)(F)F)c(C(=O)Nc2ccccc2-c2ccc(F)cc2)s1` [Example 3.37, reference compound], the pest or weed control at 10 g/ha [2] is reported as 20%, the pest or weed control at 100 g/ha [3] is reported as 50% and the ED50 [5] is reported as greater than 100 ppm. The ED50 [6] was 84.24 ppm and the pest or weed control at 10 g/ha [4] was 32%.
`Cc1nc(C(F)(F)F)c(C(=O)Nc2ccccc2-c2ccc(F)c(F)c2)s1` [Example 4] showed a chromatographic logP [1] of 3.31, a pest or weed control at 10 g/ha [2] of 90% and a melting point of 120 to 122 °C. For the same compound, the pest or weed control at 10 g/ha [4] was 100%.
With `Cc1nc(C(F)(F)F)c(C(=O)Nc2ccccc2-c2cc(F)cc(F)c2)s1` [Example 5] the chromatographic logP [1] was 3.35, the melting point was 133 to 134 °C and the pest or weed control at 10 g/ha [4] was 94%.
With `Cc1nc(C(F)(F)F)c(C(=O)Nc2ccccc2-c2ccc(F)cc2F)s1` [Example 6] the chromatographic logP [1] was 3.21 and the pest or weed control at 10 g/ha [4] was 99%.
In the case of `Cc1nc(C(F)(F)F)c(C(=O)Nc2ccccc2-c2ccc(Cl)c(F)c2)s1` [Example 7], the chromatographic logP [1] is reported as 3.61, the pest or weed control at 10 g/ha [2] is reported as 95% and the pest or weed control at 100 g/ha [3] is reported as 92%. It also gave a melting point of 139 to 141 °C and a pest or weed control at 10 g/ha [4] of 100%.
In the case of `Cc1nc(C(F)(F)F)c(C(=O)Nc2ccccc2-c2ccc(F)c(C(F)(F)F)c2)s1` [Example 9], the chromatographic logP [1] is reported as 3.76 and the pest or weed control at 10 g/ha [2] is reported as 90%.
With `Cc1nc(C(F)(F)F)c(C(=O)Nc2ccccc2-c2ccc(F)c(C)c2)s1` [Example 10] the pest or weed control at 10 g/ha [2] was 98%, the pest or weed control at 100 g/ha [3] was 95% and the ED50 [5] was <0.1 <0.1 ppm. The ED50 [6] was <0.1 <0.1 ppm and the pest or weed control at 10 g/ha [4] was 100%.
Work on `Cc1nc(C(F)(F)F)c(C(=O)Nc2ccccc2-c2ccc(Cl)c(C(F)(F)F)c2)s1` [Example 11] yielded a chromatographic logP [1] of 4.03, a pest or weed control at 10 g/ha [2] of 100% and an ED50 [5] of less than 0.1 ppm. It also gave an ED50 [6] of 1.42 ppm and a pest or weed control at 10 g/ha [4] of 100%.
`Cc1nc(C(F)(F)F)c(C(=O)Nc2ccccc2-c2ccc(C)c(C(F)(F)F)c2)s1` [Example 12] gave a chromatographic logP [1] of 4.03, a pest or weed control at 10 g/ha [2] of 100% and an ED50 [5] of less than 0.1 ppm. The ED50 [6] was 3.16 ppm.
In the case of `Cc1nc(C(F)(F)F)c(C(=O)Nc2ccccc2-c2ccc(OC(F)(F)F)c(C(F)(F)F)c2)s1` [Example 13], the chromatographic logP [1] is reported as 4.08 and the pest or weed control at 10 g/ha [2] is reported as 85%.
With `Cc1nc(C(F)(F)F)c(C(=O)Nc2ccccc2-c2cc(Cl)cc(Cl)c2)s1` [Example 14] the chromatographic logP [1] was 3.63, the ED50 [5] was less than 0.1 ppm and the ED50 [6] was 0.32 ppm. For the same compound, the pest or weed control at 10 g/ha [4] was 100%.
For `Cc1nc(C(F)(F)F)c(C(=O)Nc2ccccc2-c2ccc(Cl)cc2C)s1` [Example 16], the chromatographic logP [1] was 4.23, the ED50 [5] was 0.45 ppm and the ED50 [6] was 0.89 ppm.
Compound `Cc1nc(C(F)(F)F)c(C(=O)Nc2ccccc2-c2ccc(Cl)cc2Cl)s1` [Example 17] has a chromatographic logP [1] of 3.86, a pest or weed control at 10 g/ha [2] of 90% and a pest or weed control at 100 g/ha [3] of 87%.
`Cc1nc(C(F)(F)F)c(C(=O)Nc2ccccc2-c2ccc(C)c(Cl)c2)s1` [Example 18] showed a pest or weed control at 100 g/ha [3] of 99% and a pest or weed control at 10 g/ha [4] of 100%.
In the case of `Cc1nc(C(F)(F)F)c(C(=O)Nc2ccccc2-c2ccc(Cl)cc2F)s1` [Example 19], the chromatographic logP [1] is reported as 3.52, the pest or weed control at 10 g/ha [2] is reported as 81% and the pest or weed control at 100 g/ha [3] is reported as 99%. It also gave a pest or weed control at 10 g/ha [4] of 100%.
With `Nc1ccccc1-c1ccc(F)c(Cl)c1` [Example (III-1), 3′-chloro-4′-fluoro-1,1′-biphenyl-2-amine] the chromatographic logP [1] was 3.01.
`Cc1nc(C(F)(F)F)c(C(=O)Nc2ccccc2I)s1` [Example (IV-1), N-(2-iodophenyl)-2-methyl-4-(trifluoromethyl)-1,3-thiazol-5-carboxamide] gave a chromatographic logP [1] of 2.81.
`Cc1nc(C(F)(F)F)c(C(=O)Nc2ccccc2Br)s1` [Example (IV-2), N-(2-bromophenyl)-2-methyl-4-(trifluoromethyl)-1,3-thiazol-5-carboxamide] gave a chromatographic logP [1] of 2.79.
With `Cc1nc(C(F)(F)F)c(C(=O)Nc2ccccc2-c2ccc(Cl)cc2)s1` [reference compound] the pest or weed control at 10 g/ha [2] was 30%, the pest or weed control at 100 g/ha [3] was 76% and the ED50 [5] was >100>100 ppm. The ED50 [6] was >100>100 ppm and the pest or weed control at 10 g/ha [4] was 76%.
